Laboratory results from patent publication US20070197512A1, “Carboxylic Acid Compounds and Use Thereof” (Japan Tobacco Inc., priority 2006, published 2007).

Target: T1, human URAT1 (Homo sapiens, UniProt Q96S37)
T1 construct: Human URAT1 full length cDNA was subcloned to expression vector pcDNA3.1; expressed in transfected cells; host or cells: HEK293 cells (pcDNA3.1, geneticin-selected)
T1 sequence (Q96S37 1-553): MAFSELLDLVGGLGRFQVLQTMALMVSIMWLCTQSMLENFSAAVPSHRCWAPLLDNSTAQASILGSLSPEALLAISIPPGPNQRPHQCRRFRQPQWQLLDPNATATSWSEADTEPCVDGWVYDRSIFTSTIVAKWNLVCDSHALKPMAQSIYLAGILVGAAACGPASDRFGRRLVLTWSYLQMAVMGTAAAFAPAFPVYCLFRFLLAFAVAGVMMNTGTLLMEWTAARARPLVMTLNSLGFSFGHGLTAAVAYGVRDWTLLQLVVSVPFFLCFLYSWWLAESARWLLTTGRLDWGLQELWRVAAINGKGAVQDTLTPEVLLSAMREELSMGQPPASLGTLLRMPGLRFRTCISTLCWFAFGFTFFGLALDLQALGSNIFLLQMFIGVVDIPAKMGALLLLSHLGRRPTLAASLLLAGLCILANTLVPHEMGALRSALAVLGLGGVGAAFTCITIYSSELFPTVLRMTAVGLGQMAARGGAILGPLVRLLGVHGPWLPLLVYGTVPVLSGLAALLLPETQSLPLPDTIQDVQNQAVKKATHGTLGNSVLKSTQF
Assay: Uric acid transport inhibitory test using human URAT1-expressing cells
Assay type: cell-based
Settings: human URAT1-expressing HEK293 cells, 14C-uric acid 50 μM, uptake 5 min, room temperature; read-out: hURAT1 IC50
Description: Experimental Example 1 Uric Acid Transport Inhibitory Test Using Human URAT1-Expressing Cells
Human URAT1 full length cDNA was subcloned to expression vector pcDNA3.1 and human URAT1 gene was transfected into human embryonic kidney derived cell line (HEK293 cells) by liposome method using Lipofectamine2000. Simultaneously, HEK293 cells transfected with expression vector pcDNA3.1 alone (hereinafter mock cells) were also produced. HEK293 cells expressing human URAT1 gene or mock cells were selected with geneticin resistance as an index. The functional expression of human URAT1 gene was confirmed by a method similar to the following method, using ^14C-uric acid transport into the cells as an index.
Human URAT1-expressing HEK293 cells or mock cells were cultured in Dulbecco's modified Eagle's MEM medium (high glucose) containing 10% fetal bovine serum, 0.5 mg/mL geneticin sulfate, 100 units/mL penicillin and 100 μg/mL streptomycin under the conditions of 37° C. and 5% CO2 in an incubator. The cells were plated in a 96 well plate (poly-D-Lysine coated) at 1×10^5 cells/well and the following uric acid transport inhibitory test was performed 24 hr later. This test was performed at room temperature.
After the medium was removed by aspiration from each well, the cells were washed once with Hank's Balanced Salt Solution (HBSS) and preincubated with HBSS (100 μL/well) for 5 min. HBSS was aspirated and an assay buffer (wherein NaCl in the above-mentioned HBSS had been substituted with Na-gluconate) containing various concentrations of the Example compound and a radioactive ligand (14C-uric acid; final concentration 50 μM) was added to each well at 50 μL/well and an uptake reaction was carried out for 5 min. After the reaction, the cells were washed twice with ice-cold HBSS (150 μL/well), and Microscinti™ 20 (PerkinElmer) was added at 50 μL/well. The cells were lysed by stirring and the radioactivity of each well was measured by a liquid scintillation counter (TOP COUNT, Packard).
The uric acid transport rate (%) of the Example compound at each concentration was calculated relative to the radioactivity (difference in radioactivity between human URAT1-expressing HEK293 cells and mock cells without addition of Example compound (DMSO addition)) showing URAT1 specific uric acid transport as 100%, and the concentration (IC50) of the Example compound necessary for inhibiting the uric acid transport rate by 50% was determined. In Table 24-Table 27, “+++” means IC50 value of less than 300 nM, “++” means IC50 value of 300 nM to less than 3000 nM, and “+” means IC50 value of not less than 3000 nM.

IC50 [µM]	SMILES
< 0.3	Cc1cc(C)c2c(c1)N(CCC(=O)O)C(=O)C(c1ccccc1)O2 (stereo not drawn) [Example 72, 3-(6,8-dimethyl-3-oxo-2-phenyl-2,3-dihydrobenzo[1,4]oxazin-4-yl)propionic acid]
≥ 3	CC(C)c1cccc2c1OC(C(C)C)CN2C(=O)C(=O)O (stereo not drawn) [Example 29, (2,8-diisopropyl-2,3-dihydrobenzo[1,4]oxazin-4-yl)oxoacetic acid]
< 0.3	CCC1Oc2c(C)cc(C)cc2N(CCC(=O)O)C1=O (stereo not drawn) [Example 87, 3-(2-ethyl-6,8-dimethyl-3-oxo-2,3-dihydrobenzo[1,4]oxazin-4-yl)propionic acid]
≥ 3	COC(=O)CN1C(=O)COc2ccccc21 [Example 1, (3-oxo-2,3-dihydrobenzo[1,4]oxazin-4-yl)acetic acid methyl ester]
0.3 to 3	CCc1cccc2c1OC(C(C)C)CN2C(=O)/C=C/C(=O)O (stereo not drawn) [Example 60, (E)-4-(8-ethyl-2-isopropyl-2,3-dihydrobenzo[1,4]oxazin-4-yl)-4-oxo-2-butenoic acid]
0.3 to 3	CC(C)C1Oc2c(cc(C(F)(F)F)cc2C(F)(F)F)N(CCC(=O)O)C1=O (stereo not drawn) [Example 103, 3-[2-isopropyl-3-oxo-6,8-bis(trifluoromethyl)-2,3-dihydrobenzo[1,4]oxazin-4-yl]propionic acid]
≥ 3	Cc1cc(C)c2c(c1)N(CCC(=O)O)C(=O)C(C)O2 (stereo not drawn) [Example 86, 3-(2,6,8-trimethyl-3-oxo-2,3-dihydrobenzo[1,4]oxazin-4-yl)propionic acid]
≥ 3	CC(C)C1Oc2ccccc2N(CC(=O)O)C1=S (stereo not drawn) [Example 13, (2-isopropyl-3-thioxo-2,3-dihydrobenzo[1,4]oxazin-4-yl)acetic acid]
≥ 3	CC(C)C1Oc2ccccc2N(CCC(=O)O)C1=O (stereo not drawn) [Example 32, 3-(2-isopropyl-3-oxo-2,3-dihydrobenzo[1,4]oxazin-4-yl)propionic acid]
≥ 3	CC(C)C1CN(C(=O)/C=C/C(=O)O)c2cccc(C(C)(C)C)c2O1 (stereo not drawn) [Example 52, (E)-4-(8-tert-butyl-2-isopropyl-2,3-dihydrobenzo[1,4]oxazin-4-yl)-4-oxo-2-butenoic acid]
< 0.3	Cc1cc(Cl)cc2c1OC(C(C)C)C(=O)N2CCC(=O)O (stereo not drawn) [Example 81, 3-(6-chloro-2-isopropyl-8-methyl-3-oxo-2,3-dihydrobenzo[1,4]oxazin-4-yl)propionic acid]
≥ 3	O=C(O)/C=C/C(=O)N1CC(c2ccccc2)Oc2cc(Cl)ccc21 (stereo not drawn) [Example 70, (E)-4-(7-chloro-2-phenyl-2,3-dihydrobenzo[1,4]oxazin-4-yl)-4-oxo-2-butenoic acid]
≥ 3	CC(C)c1cccc2c1OCC(=O)N2CCC(=O)O [Example 35, 3-(8-isopropyl-3-oxo-2,3-dihydrobenzo[1,4]oxazin-4-yl)propionic acid]
≥ 3	O=C(O)CCCCC(=O)N1CCOc2ccccc21 [Example 27, 6-(2,3-dihydrobenzo[1,4]oxazin-4-yl)-6-oxohexanoic acid]
≥ 3	CC(C)c1cccc2c1OCC(=O)N2CC(=O)O [Example 10, (8-isopropyl-3-oxo-2,3-dihydrobenzo[1,4]oxazin-4-yl)acetic acid]
0.3 to 3	Cc1ccc2c(c1)N(CCC(=O)O)C(=O)C(C(C)C)O2 (stereo not drawn) [Example 58, 3-(2-isopropyl-6-methyl-3-oxo-2,3-dihydrobenzo[1,4]oxazin-4-yl)propionic acid]
0.3 to 3	CC(C)c1cccc2c1OC(c1ccccc1)CN2C(=O)/C=C/C(=O)O (stereo not drawn) [Example 45, (E)-4-(8-isopropyl-2-phenyl-2,3-dihydrobenzo[1,4]oxazin-4-yl)-4-oxo-2-butenoic acid]
≥ 3	Cc1cc(C)c2c(c1)N(CCC(=O)O)C(=O)C(Cc1ccccc1)O2 (stereo not drawn) [Example 92, 3-(2-benzyl-6,8-dimethyl-3-oxo-2,3-dihydrobenzo[1,4]oxazin-4-yl)propionic acid]

IC50 [µM]	SMILES
≥ 3	CC(C)c1cccc2c1OCC(=S)N2CC(=O)O [Example 15, (8-isopropyl-3-thioxo-2,3-dihydrobenzo[1,4]oxazin-4-yl)acetic acid]
≥ 3	CC(C)C1Oc2c(cccc2C(C)(C)C)N(CCC(=O)O)C1=O (stereo not drawn) [Example 46, 3-(8-tert-butyl-2-isopropyl-3-oxo-2,3-dihydrobenzo[1,4]oxazin-4-yl)propionic acid]
0.3 to 3	CC(C)C1CN(C(=O)/C=C/C(=O)O)c2ccc(Cl)cc2O1 (stereo not drawn) [Example 68, (E)-4-(7-chloro-2-isopropyl-2,3-dihydrobenzo[1,4]oxazin-4-yl)-4-oxo-2-butenoic acid]
≥ 3	O=C(O)CCN1C(=O)C(c2ccccc2)Oc2cc(Cl)ccc21 (stereo not drawn) [Example 76, 3-(7-chloro-3-oxo-2-phenyl-2,3-dihydrobenzo[1,4]oxazin-4-yl)propionic acid]
0.3 to 3	CCCCC1Oc2c(C)cc(C)cc2N(CCC(=O)O)C1=O (stereo not drawn) [Example 93, 3-(2-butyl-6,8-dimethyl-3-oxo-2,3-dihydrobenzo[1,4]oxazin-4-yl)propionic acid]
≥ 3	CCC1Oc2c(C(C)C)cccc2N(CC(=O)O)C1=O (stereo not drawn) [Example 39, (2-ethyl-8-isopropyl-3-oxo-2,3-dihydrobenzo[1,4]oxazin-4-yl)acetic acid]
≥ 3	O=C(O)CCN1C(=O)COc2ccccc21 [Example 19, 3-(3-oxo-2,3-dihydrobenzo[1,4]oxazin-4-yl)propionic acid]
≥ 3	O=C(O)/C=C\C(=O)N1CCOc2ccccc21 [Example 25, (Z)-4-(2,3-dihydrobenzo[1,4]oxazin-4-yl)-4-oxo-2-butenoic acid]
≥ 3	CC(C)C1Oc2cc([N+](=O)[O-])ccc2N(CCC(=O)O)C1=O (stereo not drawn) [Example 95, 3-(2-isopropyl-7-nitro-3-oxo-2,3-dihydrobenzo[1,4]oxazin-4-yl)propionic acid]
≥ 3	CC(C)C1CN(C(=O)/C=C/C(=O)O)c2cccc(C3CCCCC3)c2O1 (stereo not drawn) [Example 79, (E)-4-(8-cyclohexyl-2-isopropyl-2,3-dihydrobenzo[1,4]oxazin-4-yl)-4-oxo-2-butenoic acid]
≥ 3	O=C(O)CN1C(=S)CSc2ccccc21 [Example 12, (3-thioxo-2,3-dihydrobenzo[1,4]thiazin-4-yl)acetic acid]
0.3 to 3	CC(C)C1Oc2ccc(C(F)(F)F)cc2N(CCC(=O)O)C1=O (stereo not drawn) [Example 97, 3-(2-isopropyl-3-oxo-6-trifluoromethyl-2,3-dihydrobenzo[1,4]oxazin-4-yl)propionic acid]
≥ 3	O=C(O)CN1C(=O)CSc2ccccc21 [Example 4, (3-oxo-2,3-dihydrobenzo[1,4]thiazin-4-yl)acetic acid]
≥ 3	O=C(O)/C=C/C(=O)N1CCOc2ccccc21 [Example 28, (E)-4-(2,3-dihydrobenzo[1,4]oxazin-4-yl)-4-oxo-2-butenoic acid]
0.3 to 3	CCc1cccc2c1OC(c1ccccc1)C(=O)N2CCC(=O)O (stereo not drawn) [Example 59, 3-(8-ethyl-3-oxo-2-phenyl-2,3-dihydrobenzo[1,4]oxazin-4-yl)propionic acid]
0.3 to 3	CC(C)C1Oc2c(Br)cccc2N(CCC(=O)O)C1=O (stereo not drawn) [Example 51, 3-(8-bromo-2-isopropyl-3-oxo-2,3-dihydrobenzo[1,4]oxazin-4-yl)propionic acid]
0.3 to 3	Cc1ccc2c(c1)OC(C(C)C)C(=O)N2CCC(=O)O (stereo not drawn) [Example 43, 3-(2-isopropyl-7-methyl-3-oxo-2,3-dihydrobenzo[1,4]oxazin-4-yl)propionic acid]
≥ 3	CC1(C)Oc2ccccc2N(CC(=O)O)C1=O [Example 5, (2,2-dimethyl-3-oxo-2,3-dihydrobenzo[1,4]oxazin-4-yl)acetic acid]
